Test results from patent US20250241586A1, “Bioavailability and bioequivalence through intrinsic activity and KD measurements, in vivo, in humans” (priority 2024, published 2025).
pKd: −log10 of the molar value. Where two headings read alike, the source gives them in different places.

How the values were obtained:
benzodiazepine receptors = assay: Sleep time in human male volunteers; in vivo KD from reciprocals plot; conditions: for A Free drug**: free drug quantity crossing the blood brain barrier
Procedure: Drug action is measured by the following parameters all measured in vivo in living animals/humans. • A) Onset time and threshold dose/concentration (minimum dose/concentration to initiate the effect,) these indicate the potency of the drug. • B) Intrinsic Activity or the maximum possible effect, • C) Dissociation constant. Its reciprocal measures the affinity of the drug for the receptor. The above named, parameters have been measured as stated below:
The literature also notes that there could be huge differences in in vivo and in vitro values and in such cases in vivo values are to be taken, if available (1). […] A point in this regard is that many drugs act on multiple receptor systems and in such cases the response is to be chosen such that only one receptor system is involved. […] The assumption is valid since the amount of bound drug is negligible compared to the total amount of drug at receptor and may be neglected. […] Alprazolam was administered to human male volunteers with sound health, of average weight and having normal creatinine clearance in the doses of 4 mcg/kg, 6 mcg/kg and 8 mcg/kg, and onset and sleep times noted. • The amount of free drug crossing the blood brain barrier was obtained.

[1] = biological target: K+ channels of the beta cells of the pancreas (Homo sapiens, UniProt Q09428); conditions: for KD: in vivo in humans, from slope of 1/fractional response vs 1/A plot
K+ channels of the beta cells of the pancreas, sequence (Q09428 whole entry): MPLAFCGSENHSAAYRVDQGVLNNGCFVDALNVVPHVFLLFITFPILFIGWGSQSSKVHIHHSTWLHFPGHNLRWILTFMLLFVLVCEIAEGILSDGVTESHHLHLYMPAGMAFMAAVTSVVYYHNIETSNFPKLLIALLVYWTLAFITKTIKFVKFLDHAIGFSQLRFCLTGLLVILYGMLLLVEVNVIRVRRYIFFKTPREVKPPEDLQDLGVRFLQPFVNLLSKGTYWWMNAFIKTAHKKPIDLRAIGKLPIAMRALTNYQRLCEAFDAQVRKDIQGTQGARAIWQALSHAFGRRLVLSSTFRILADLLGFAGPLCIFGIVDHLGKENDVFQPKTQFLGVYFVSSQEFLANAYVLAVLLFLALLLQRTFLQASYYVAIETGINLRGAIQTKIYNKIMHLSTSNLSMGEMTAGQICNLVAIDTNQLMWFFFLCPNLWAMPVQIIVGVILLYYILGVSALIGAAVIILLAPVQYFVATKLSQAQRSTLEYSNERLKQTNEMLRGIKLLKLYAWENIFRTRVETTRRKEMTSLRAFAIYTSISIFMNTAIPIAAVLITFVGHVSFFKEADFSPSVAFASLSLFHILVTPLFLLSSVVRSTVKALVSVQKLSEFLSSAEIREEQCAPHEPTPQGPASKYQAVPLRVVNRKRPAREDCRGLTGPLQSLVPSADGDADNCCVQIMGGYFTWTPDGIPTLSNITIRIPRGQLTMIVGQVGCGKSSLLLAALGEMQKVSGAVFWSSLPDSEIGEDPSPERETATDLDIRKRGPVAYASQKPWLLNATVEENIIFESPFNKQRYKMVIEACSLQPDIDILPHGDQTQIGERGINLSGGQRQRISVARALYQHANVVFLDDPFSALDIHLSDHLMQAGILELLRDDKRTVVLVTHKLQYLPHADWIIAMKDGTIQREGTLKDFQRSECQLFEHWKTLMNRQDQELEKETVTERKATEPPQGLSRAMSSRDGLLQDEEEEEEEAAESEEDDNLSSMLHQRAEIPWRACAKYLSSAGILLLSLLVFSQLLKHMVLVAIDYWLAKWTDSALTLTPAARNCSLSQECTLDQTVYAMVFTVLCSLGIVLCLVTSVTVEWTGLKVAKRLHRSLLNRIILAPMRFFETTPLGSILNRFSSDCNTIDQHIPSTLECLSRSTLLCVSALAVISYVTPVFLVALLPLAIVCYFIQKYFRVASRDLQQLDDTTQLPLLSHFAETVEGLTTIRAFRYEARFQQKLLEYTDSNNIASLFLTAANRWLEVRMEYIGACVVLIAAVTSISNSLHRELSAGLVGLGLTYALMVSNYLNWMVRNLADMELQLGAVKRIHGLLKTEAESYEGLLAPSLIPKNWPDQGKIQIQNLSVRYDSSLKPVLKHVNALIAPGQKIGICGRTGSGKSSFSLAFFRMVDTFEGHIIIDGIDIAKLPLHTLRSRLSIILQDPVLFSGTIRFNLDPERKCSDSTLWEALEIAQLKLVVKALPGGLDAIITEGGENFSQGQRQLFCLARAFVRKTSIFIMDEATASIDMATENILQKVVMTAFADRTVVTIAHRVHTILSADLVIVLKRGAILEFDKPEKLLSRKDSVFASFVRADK
K+ channels of the beta cells of the pancreas, sequence (Q14654 whole entry partner): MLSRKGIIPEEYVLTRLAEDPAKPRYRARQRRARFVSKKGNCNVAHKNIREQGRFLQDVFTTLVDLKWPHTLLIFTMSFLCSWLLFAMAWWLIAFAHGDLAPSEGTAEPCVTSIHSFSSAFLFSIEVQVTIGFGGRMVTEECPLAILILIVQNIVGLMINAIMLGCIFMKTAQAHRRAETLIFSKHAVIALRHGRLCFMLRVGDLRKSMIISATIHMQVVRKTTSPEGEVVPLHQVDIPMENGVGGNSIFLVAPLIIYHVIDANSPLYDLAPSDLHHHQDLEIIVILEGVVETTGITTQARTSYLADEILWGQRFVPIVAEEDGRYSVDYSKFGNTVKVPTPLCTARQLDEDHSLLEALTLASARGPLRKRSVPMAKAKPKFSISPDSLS

[2] = in vitro and cell culture; read-out: KD literature values; cited from earlier work

For Cc1nnc2n1-c1ccc(Cl)cc1C(c1ccccc1)=NC2 [Alprazolam, alprazolam], the 1/A (benzodiazepine receptors; alprazolam dose 4 Mcg/kg) was 225.8, the 1/Fractional response (benzodiazepine receptors; alprazolam dose 4 Mcg/kg) was 3.8 and the Response sleep time (benzodiazepine receptors; alprazolam dose 4 Mcg/kg) was 63 min. The “A Free drug**” value (benzodiazepine receptors; alprazolam dose 4 Mcg/kg) was 0.0044 Mcg/ml, the 1/A (benzodiazepine receptors; alprazolam dose 6 Mcg/kg) was 151.4 and the 1/Fractional response (benzodiazepine receptors; alprazolam dose 6 Mcg/kg) was 2.4. The Response sleep time (benzodiazepine receptors; alprazolam dose 6 Mcg/kg) was 100 min, the “A Free drug**” value (benzodiazepine receptors; alprazolam dose 6 Mcg/kg) was 0.0066 Mcg/ml and the 1/A (benzodiazepine receptors; alprazolam dose 8 Mcg/kg) was 49.8. The 1/Fractional response (benzodiazepine receptors; alprazolam dose 8 Mcg/kg) was 1.0, the Response sleep time (benzodiazepine receptors; alprazolam dose 8 Mcg/kg) was 241 min and the “A Free drug**” value (benzodiazepine receptors; alprazolam dose 8 Mcg/kg) was 0.0088 Mcg/ml. The Threshold dose (benzodiazepine receptors; humans) was 4 mcg/kg bodyweight and the pKd (benzodiazepine receptors; in vivo in humans, response sleep time, free drug crossing the blood brain barrier, slope of reciprocals plot) was 7.29.
In the case of CCC1=C(C)CN(C(=O)NCCc2ccc(S(=O)(=O)NC(=O)N[C@H]3CC[C@H](C)CC3)cc2)C1=O [Glimepride, glimepride], the 1/Fractional response ([1]; glimepride dose 5 Mcg/kg) was 17.24, the “Response AUC reduction” value ([1]; glimepride dose 5 Mcg/kg) was 30 mg·h/dL and the 1/Fractional response ([1]; glimepride dose 10 Mcg/kg) was 4.48. The “Response AUC reduction” value ([1]; glimepride dose 10 Mcg/kg) was 115 mg·h/dL, the 1/Fractional response ([1]; glimepride dose 20 Mcg/kg) was 1.0 and the “Response AUC reduction” value ([1]; glimepride dose 20 Mcg/kg) was 514 mg·h/dL. The KD [1] was “KD = 2.018 nM”, the KD ([1]; listed as glimepride) was 2.0 nM and the Threshold dose ([1]; point of inflection of log dose response curve, humans) was 5 mcg/kg body weight.
For Cc1cnc(C(=O)NCCc2ccc(S(=O)(=O)NC(=O)NC3CCCCC3)cc2)cn1 [Glipizide, glipizide], the KD [1] is listed as “KD = 8.98 nM”, the KD ([1]; listed as glipizide) is listed as 8.98 nM and the pKd [2] is listed as ~8.00.
